The supplement of paper PMC4862054
“And” between values parts separate entries of the source, which are not always exact repeats. Equal entries are not always repeated.

Tests used:
[1] = test system: MFM-223; assay: normalised viability (% of control), CellTiter-Blue; higher = more viable cells (about 100 = DMSO control); conditions: 10 nM; incubation time: 72 h
Outline: (§1)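 Vehicle (100) and a positive kill control (0) anchored the normalisation of each plate, and Z'-factor was used for quality control. Breast cancer cell lines in 20 µl suspension were incubated 72 h over compound in 5 µl medium in 384-well plates, followed by CellTiter-Blue at 560/590 nm. The value is normalised viability at a single listed concentration of the series.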

[2] = test system: HDQ-P1; assay: as above; conditions: 3 nM; incubation time: 72 h
Outline: as §1

[3] = test system: HCC1599; assay: as above; conditions: 10 nM; incubation time: 72 h
Outline: as §1

[4] = test system: BT-474; assay: as above; conditions: 10 nM; incubation time: 72 h
Outline: as §1

[5] = test system: CAL-120; assay: as above; conditions: 10 nM; incubation time: 72 h
Outline: as §1

[6] = test system: DU-4475; assay: as above; conditions: 3 nM; incubation time: 72 h
Outline: as §1

[7] = test system: MDA-MB-231; assay: as above; conditions: 10 nM; incubation time: 72 h
Outline: as §1

[8] = test system: CAL-148; assay: as above; conditions: 3 nM; incubation time: 72 h
Outline: as §1

[9] = test system: HCC1937; assay: as above; conditions: 10 nM; incubation time: 72 h
Outline: as §1

[10] = test system: MDA-MB-468; assay: as above; conditions: 10 nM; incubation time: 72 h
Outline: as §1

[11] = test system: HCC1143; assay: as above; conditions: 10 nM; incubation time: 72 h
Outline: as §1

[12] = test system: MDA-MB-453; assay: as above; conditions: 3 nM; incubation time: 72 h
Outline: as §1

[13] = test system: Hs578T; assay: as above; conditions: 10 nM; incubation time: 72 h
Outline: as §1

[14] = test system: CAL-51; assay: as above; conditions: 3 nM; incubation time: 72 h
Outline: as §1

[15] = test system: MDA-MB-436; assay: as above; conditions: 10 nM; incubation time: 72 h
Outline: as §1

[16] = test system: CAL-85-1; assay: as above; conditions: 3 nM; incubation time: 72 h
Outline: as §1

[17] = test system: BT-549; assay: as above; conditions: 10 nM; incubation time: 72 h
Outline: as §1

[18] = test system: SK-BR-3; assay: as above; conditions: 10 nM; incubation time: 72 h
Outline: as §1

[19] = test system: HDQ-P1; assay: drug sensitivity score (DSS), CellTiter-Glo (DSS (AUC-based score)); higher = stronger drug effect (viability inhibition or cytotoxicity); extreme values may be limits of the assay; conditions: incubation time: 72 h
Outline: (§2)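 The area under the fitted dose-response curve was used to calculate the drug sensitivity score. Cells from breast cancer lines were incubated for 72 h in 384-well plates with compound at 5 concentrations spaced 10-fold over a 10,000-fold range specific to each compound. Plates were read for CellTox Green and then CellTiter-Glo, and normalised to 0.1 % DMSO and a positive kill control.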

[20] = test system: BT-474; assay: as above; conditions: incubation time: 72 h
Outline: as §2

[21] = test system: MCF-10A; assay: as above; conditions: incubation time: 72 h
Outline: as §2

[22] = test system: MDA-MB-468; assay: as above; conditions: incubation time: 72 h
Outline: as §2

[23] = test system: MDA-MB-453; assay: as above; conditions: incubation time: 72 h
Outline: as §2

[24] = test system: Hs578T; assay: as above; conditions: incubation time: 72 h
Outline: as §2

[25] = test system: HDQ-P1; assay: normalised viability (% of control), CellTiter-Blue; higher = more viable cells (about 100 = DMSO control); conditions: 3000 nM; incubation time: 72 h
Method: (§3)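 DSRT, CellTiter-Blue viability, 72 h incubation. Signal is normalised to DMSO and benzethonium chloride controls. Value is the normalised response at dose 8.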

[26] = test system: DU-4475; assay: as above; conditions: 3000 nM; incubation time: 72 h
Method: as §3

[27] = test system: CAL-148; assay: as above; conditions: 3000 nM; incubation time: 72 h
Method: as §3

[28] = test system: MDA-MB-453; assay: as above; conditions: 3000 nM; incubation time: 72 h
Method: as §3

[29] = test system: CAL-51; assay: as above; conditions: 3000 nM; incubation time: 72 h
Method: as §3

[30] = test system: CAL-85-1; assay: as above; conditions: 3000 nM; incubation time: 72 h
Method: as §3

| SMILES | normalised viability [1] | normalised viability [2] | normalised viability [3] | normalised viability [4] | normalised viability [5] | normalised viability [6] | normalised viability [7] | normalised viability [8] | normalised viability [9] | normalised viability [10] | normalised viability [11] | normalised viability [12] | normalised viability [13] | normalised viability [14] | normalised viability [15] | normalised viability [16] | normalised viability [17] | normalised viability [18] | drug sensitivity score [19] | drug sensitivity score [20] | drug sensitivity score [21] | drug sensitivity score [22] | drug sensitivity score [23] | drug sensitivity score [24] | normalised viability [25] | normalised viability [26] | normalised viability [27] | normalised viability [28] | normalised viability [29] | normalised viability [30] |
| --- | --- | --- | --- | --- | --- | --- | --- | --- | --- | --- | --- | --- | --- | --- | --- | --- | --- | --- | --- | --- | --- | --- | --- | --- | --- | --- | --- | --- | --- | --- |
| COc1ccc(-c2ccc3c(N4CCOC[C@@H]4C)nc(N4CCOC[C@@H]4C)nc3n2)cc1CO [AZD8055] | 71.9% | 83.4% | 89.3% | 108% | 91.4% | 95.8% | 80.7% | 89.3% | 77.2% | 98.2% | 100% | 94.6% | 91.1% | 88.2% | 98.3% | 85.1% | 92.5% | 72.5% | 20.9 | 13.7 | 19.3 | 22.2 | 22.2 | 20.2 | 21.8% | 14.1% | 5.57% | 14.6% | 10.5% | 18.6% |
| CNNCc1ccc(C(=O)NC(C)C)cc1 [Procarbazine] | 98.4% | 146% | 97.4% | 106% | 104% | 90.7% | 109% | 103% | 87% | 105% | 93.1% | 114% | 105% | 107% | 97% | 95.6% | 111% | 110% | 0 | 0 | 0 | 0 | 0 | 0 | 127% | 100% | 101% | 102% | 98.8% | 95.7% |
| Cc1ccc(NC(=O)c2ccc(CN3CCN(C)CC3)cc2)cc1Nc1nccc(-c2cccnc2)n1 [Imatinib] | 95.9% and 112% | 132% and 110% | 105% and 120% | 108% and 112% | 81.6% and 90.2% | 92.2% and 97.2% | 81% and 98.2% | 80.4% and 92.6% | 89.5% and 92.4% | 95.9% and 102% | 79% and 81.2% | 129% and 110% | 106% and 119% | 111% and 108% | 117% and 111% | 91.5% and 91.4% | 87.7% and 100% | 97.5% and 99.9% | 0 | 0 | 0 | 0 | 0.32 | 0 | 118% and 119% | 112% and 116% | 102% and 90.9% | 86.2% and 83.6% | 108% and 98.6% | 96.1% and 95.3% |
